# In US20170190705A1, “Compositions and Methods for Inhibiting BMP” (THE BRIGHAM AND WOMAN'S HOSPITAL, INC., priority 2014, published 2017):
# What was measured:
# Assay type in all cases: biochemical
# [1] = biological target: RSK3 (Homo sapiens, UniProt Q15349); experiment: Kinome profiling RSK3; conditions: read-out: Inhibitory activity RSK3; for inhibition at 0.1 µM: 100 nM
# Experimental: (§1) . The kinome-wide selectivity was determined following the methods previously reported by Mohedas et al., ACS Chem Biol 2013, 8, 1291-1302 and Sanvitale et al., PLoS One 2013, 8, e62721.
# [2] = biological target: PHKγ1 (Homo sapiens, UniProt Q16816); experiment: Kinome profiling PHKγ1; conditions: read-out: Inhibitory activity PHKγ1; for inhibition at 0.1 µM: 100 nM
# Experimental: as §1
# [3] = biological target: T1, PRKX (Homo sapiens, UniProt P51817); experiment: Kinome profiling PRKX; conditions: read-out: Inhibitory activity PRKX; for inhibition at 0.1 µM: 100 nM
# T1 sequence (P51817 1-358): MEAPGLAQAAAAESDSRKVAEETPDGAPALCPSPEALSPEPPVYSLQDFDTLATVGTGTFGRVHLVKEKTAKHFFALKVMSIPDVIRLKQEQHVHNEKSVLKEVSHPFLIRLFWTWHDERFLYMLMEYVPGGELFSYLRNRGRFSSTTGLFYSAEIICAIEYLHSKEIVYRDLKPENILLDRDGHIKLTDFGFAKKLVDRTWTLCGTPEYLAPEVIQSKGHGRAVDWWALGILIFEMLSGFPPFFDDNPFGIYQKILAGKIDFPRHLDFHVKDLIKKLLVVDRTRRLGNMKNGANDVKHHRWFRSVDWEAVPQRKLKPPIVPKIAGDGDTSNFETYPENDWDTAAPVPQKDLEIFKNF
# Experimental: as §1
# [4] = biological target: T2, EPHB2 (Homo sapiens, UniProt P29323); experiment: Kinome profiling EPHB2; conditions: read-out: Inhibitory activity EPHB2; for inhibition at 0.1 µM: 100 nM
# T2 sequence (P29323 19-1055): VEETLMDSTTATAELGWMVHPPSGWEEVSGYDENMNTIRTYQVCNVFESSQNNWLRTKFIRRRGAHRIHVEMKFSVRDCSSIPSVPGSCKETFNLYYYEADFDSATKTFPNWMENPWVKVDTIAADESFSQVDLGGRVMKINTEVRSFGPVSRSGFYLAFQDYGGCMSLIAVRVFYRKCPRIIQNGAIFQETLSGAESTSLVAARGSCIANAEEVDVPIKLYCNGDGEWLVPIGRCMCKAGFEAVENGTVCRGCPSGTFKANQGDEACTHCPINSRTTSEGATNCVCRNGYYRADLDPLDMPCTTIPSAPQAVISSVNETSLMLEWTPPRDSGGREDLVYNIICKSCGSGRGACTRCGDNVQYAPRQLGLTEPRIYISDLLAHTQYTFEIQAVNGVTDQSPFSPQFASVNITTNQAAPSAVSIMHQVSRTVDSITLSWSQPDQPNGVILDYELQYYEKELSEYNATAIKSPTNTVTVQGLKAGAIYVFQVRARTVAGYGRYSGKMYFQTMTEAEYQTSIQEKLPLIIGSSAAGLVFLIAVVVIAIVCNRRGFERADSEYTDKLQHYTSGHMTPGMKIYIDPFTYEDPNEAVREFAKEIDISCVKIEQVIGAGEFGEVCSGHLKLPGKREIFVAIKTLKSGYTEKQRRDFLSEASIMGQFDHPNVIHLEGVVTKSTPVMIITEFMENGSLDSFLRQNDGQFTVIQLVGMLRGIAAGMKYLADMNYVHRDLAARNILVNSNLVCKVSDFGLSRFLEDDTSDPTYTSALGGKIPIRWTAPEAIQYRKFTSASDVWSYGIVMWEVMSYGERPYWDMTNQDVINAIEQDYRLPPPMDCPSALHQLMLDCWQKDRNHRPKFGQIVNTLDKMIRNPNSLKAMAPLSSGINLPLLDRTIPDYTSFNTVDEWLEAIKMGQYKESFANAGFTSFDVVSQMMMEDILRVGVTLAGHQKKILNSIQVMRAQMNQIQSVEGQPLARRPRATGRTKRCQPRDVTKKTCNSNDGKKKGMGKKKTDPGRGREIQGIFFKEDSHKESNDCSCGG
# Experimental: as §1
# [5] = biological target: T3, PRKG2 (Homo sapiens, UniProt Q13237); experiment: Kinome profiling PRKG2; conditions: read-out: Inhibitory activity PRKG2; for inhibition at 0.1 µM: 100 nM
# T3 sequence (Q13237 1-762): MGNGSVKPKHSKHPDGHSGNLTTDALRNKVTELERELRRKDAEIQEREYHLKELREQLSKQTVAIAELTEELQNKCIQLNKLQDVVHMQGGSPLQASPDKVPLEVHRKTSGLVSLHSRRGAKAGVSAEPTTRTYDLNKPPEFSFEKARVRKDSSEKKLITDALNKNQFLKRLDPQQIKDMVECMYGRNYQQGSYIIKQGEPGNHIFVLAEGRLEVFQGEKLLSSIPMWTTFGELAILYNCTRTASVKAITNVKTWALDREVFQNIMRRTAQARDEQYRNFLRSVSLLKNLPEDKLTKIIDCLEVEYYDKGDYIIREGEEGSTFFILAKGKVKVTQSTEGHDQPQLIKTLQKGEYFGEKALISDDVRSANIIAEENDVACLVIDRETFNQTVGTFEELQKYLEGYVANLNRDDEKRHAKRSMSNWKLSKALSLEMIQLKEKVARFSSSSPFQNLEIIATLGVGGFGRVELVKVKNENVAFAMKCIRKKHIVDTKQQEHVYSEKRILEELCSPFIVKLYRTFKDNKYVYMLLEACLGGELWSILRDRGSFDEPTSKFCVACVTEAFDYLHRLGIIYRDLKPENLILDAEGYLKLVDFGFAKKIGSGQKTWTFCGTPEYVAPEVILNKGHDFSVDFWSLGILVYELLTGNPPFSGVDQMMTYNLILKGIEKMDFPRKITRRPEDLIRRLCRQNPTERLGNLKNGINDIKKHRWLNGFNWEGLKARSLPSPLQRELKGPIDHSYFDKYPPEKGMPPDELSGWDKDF
# Experimental: as §1
# [6] = biological target: T4, TSSK1 (Homo sapiens, UniProt Q9BXA7); experiment: Kinome profiling TSSK1; conditions: read-out: Inhibitory activity TSSK1; for inhibition at 0.1 µM: 100 nM
# T4 sequence (Q9BXA7 1-367): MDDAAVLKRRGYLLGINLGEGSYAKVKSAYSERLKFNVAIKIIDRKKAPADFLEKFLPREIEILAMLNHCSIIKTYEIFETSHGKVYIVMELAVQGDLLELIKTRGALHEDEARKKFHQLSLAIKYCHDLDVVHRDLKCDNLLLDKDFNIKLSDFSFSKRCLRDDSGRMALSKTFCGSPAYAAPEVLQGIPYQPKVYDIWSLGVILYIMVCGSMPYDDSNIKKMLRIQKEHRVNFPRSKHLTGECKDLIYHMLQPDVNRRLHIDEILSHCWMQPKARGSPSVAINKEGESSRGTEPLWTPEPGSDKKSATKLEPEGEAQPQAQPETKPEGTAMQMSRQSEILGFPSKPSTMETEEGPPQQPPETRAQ
# Experimental: as §1
# Chain of PHKγ1 (Q16816 whole entry): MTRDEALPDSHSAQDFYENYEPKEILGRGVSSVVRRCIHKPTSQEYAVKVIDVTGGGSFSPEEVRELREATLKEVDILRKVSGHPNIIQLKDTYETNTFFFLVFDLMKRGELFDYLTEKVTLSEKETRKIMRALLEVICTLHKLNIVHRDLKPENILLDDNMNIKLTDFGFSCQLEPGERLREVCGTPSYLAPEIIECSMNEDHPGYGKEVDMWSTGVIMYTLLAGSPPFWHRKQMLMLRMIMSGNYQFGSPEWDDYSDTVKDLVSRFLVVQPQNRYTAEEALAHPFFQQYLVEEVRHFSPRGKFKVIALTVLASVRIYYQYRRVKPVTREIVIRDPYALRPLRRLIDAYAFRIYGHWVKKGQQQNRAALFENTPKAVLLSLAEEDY
# Chain of RSK3 (Q15349 whole entry): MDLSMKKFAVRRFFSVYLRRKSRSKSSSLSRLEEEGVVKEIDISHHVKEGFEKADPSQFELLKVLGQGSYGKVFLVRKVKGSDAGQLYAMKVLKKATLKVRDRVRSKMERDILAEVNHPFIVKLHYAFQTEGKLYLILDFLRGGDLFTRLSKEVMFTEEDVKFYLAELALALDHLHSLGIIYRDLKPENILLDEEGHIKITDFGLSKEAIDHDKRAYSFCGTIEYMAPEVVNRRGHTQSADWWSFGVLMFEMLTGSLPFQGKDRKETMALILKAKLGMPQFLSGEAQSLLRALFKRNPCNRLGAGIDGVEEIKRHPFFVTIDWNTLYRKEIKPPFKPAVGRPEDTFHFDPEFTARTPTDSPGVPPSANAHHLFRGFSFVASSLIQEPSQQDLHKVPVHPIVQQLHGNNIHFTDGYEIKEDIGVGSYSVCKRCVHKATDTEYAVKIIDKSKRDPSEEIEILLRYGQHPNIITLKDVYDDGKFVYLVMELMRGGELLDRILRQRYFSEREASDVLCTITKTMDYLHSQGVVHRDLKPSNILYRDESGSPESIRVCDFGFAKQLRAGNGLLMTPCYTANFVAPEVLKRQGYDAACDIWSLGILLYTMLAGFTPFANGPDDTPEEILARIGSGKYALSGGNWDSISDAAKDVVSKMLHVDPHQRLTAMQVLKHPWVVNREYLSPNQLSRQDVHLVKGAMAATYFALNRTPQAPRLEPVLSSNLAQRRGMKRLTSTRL
smiles,measurement,setting,value
"COc1cc(-c2cc(-c3ccc(N4CCNCC4)cc3)cnc2C)cc(OC)c1OC [Compound 10, 1-(4-(6-methyl-5-(3,4,5-trimethoxyphenyl)pyridin-3-yl)phenyl)piperazine]",inhibition at 0.1 µM,[1],3%
same,inhibition at 1 µM,[1],3%
same,inhibition at 0.1 µM,[2],3%
same,inhibition at 1 µM,[2],3%
same,inhibition at 0.1 µM,[3],0%
same,inhibition at 1 µM,[3],1%
same,inhibition at 0.1 µM,[4],5%
same,inhibition at 1 µM,[4],15%
same,inhibition at 0.1 µM,[5],0%
same,inhibition at 1 µM,[5],4%
same,inhibition at 0.1 µM,[6],2%
same,inhibition at 1 µM,[6],2%
"COc1cc(-c2cc(-c3ccc(N4CCNCC4)cc3)cnc2N)cc(OC)c1OC [Compound 15, 5-(4-(piperazin-1-yl)phenyl)-3-(3,4,5-trimethoxyphenyl)pyridin-2-amine]",inhibition at 0.1 µM,[1],2%
same,inhibition at 1 µM,[1],3%
same,inhibition at 0.1 µM,[2],3%
same,inhibition at 1 µM,[2],4%
same,inhibition at 0.1 µM,[3],1%
same,inhibition at 1 µM,[3],0%
same,inhibition at 0.1 µM,[4],22%
same,inhibition at 1 µM,[4],70%
same,inhibition at 0.1 µM,[5],0%
same,inhibition at 1 µM,[5],1%
same,inhibition at 0.1 µM,[6],1%
same,inhibition at 1 µM,[6],5%
